Test results reported in ChEMBL document CHEMBL1201862, “PubChem BioAssay data set” (2004).
Active and inactive are the calls of the source.

How the values were obtained:
Cytochrome P450 2C9 = Cytochrome P450 2C9 (Homo sapiens, UniProt P11712)
[1] = molecular target: T1, RNA-binding protein pos-1 (Caenorhabditis elegans, UniProt G5EF15); assay: disruptors of C. elegans POS-1 RNA interaction – biochemical, fluorescence polarization, dose response (AID 1964);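 also: purified POS-1 fused to maltose binding protein made in E. coli; potency of compounds blocking POS-1 binding to fluorescent RNA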
T1 sequence (G5EF15 whole entry): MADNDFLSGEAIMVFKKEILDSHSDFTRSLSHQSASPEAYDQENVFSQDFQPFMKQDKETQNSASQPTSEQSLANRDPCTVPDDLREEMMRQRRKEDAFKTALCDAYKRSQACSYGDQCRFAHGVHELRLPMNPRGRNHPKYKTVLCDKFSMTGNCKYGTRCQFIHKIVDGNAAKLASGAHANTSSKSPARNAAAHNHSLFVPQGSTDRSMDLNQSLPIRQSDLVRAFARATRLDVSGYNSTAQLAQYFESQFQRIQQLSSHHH

[2] = molecular target: T2, Zinc finger protein mex-5 (Caenorhabditis elegans, UniProt Q9XUB2); assay: potency of MEX-5 RNA-binding blockers – biochemical, C. elegans, fluorescence polarization, dose response (AID 1960)
T2 sequence (Q9XUB2 whole entry): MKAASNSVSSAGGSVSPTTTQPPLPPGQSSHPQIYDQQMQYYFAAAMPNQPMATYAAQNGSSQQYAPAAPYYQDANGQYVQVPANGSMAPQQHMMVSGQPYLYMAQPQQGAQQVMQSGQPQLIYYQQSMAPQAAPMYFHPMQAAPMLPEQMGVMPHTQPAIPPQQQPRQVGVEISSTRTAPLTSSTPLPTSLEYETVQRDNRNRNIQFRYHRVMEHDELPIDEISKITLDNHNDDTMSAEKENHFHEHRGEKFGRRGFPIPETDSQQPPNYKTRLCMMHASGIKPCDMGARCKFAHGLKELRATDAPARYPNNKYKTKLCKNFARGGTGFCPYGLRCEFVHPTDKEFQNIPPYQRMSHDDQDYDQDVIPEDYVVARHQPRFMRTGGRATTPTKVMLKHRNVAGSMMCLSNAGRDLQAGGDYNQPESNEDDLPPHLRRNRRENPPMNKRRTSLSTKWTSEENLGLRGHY

[3] = Trypanosoma cruzi growth suppression in host cells – NIH3T3 host cells, beta-gal luminescence, confirmation (AID 2044); format: functional, cell-based;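 also: intracellular parasites grown in NIH/3T3 mouse fibroblasts as host cells; luminescent beta-galactosidase reporter signal from transgenic T. cruzi replicating inside host cells; inhibitors lower the luminescence signal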
[4] = NIH3T3 cell viability loss – ATP luminescence, mouse fibroblasts, counter-screen, dose response (AID 2010); format: functional, cell-based;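 also: cells exposed to compound for about 90 hours before reading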
[5] = molecular target: T3, Microphthalmia-associated transcription factor (Homo sapiens, UniProt O75030); assay: reducers of TRPM1 reporter luminescence, concentration series – cell-based, SK-MEL-5, cherry-picked, set 3, MITF inhibitor project, dose response (AID 493073); format: functional;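 also: SK-MEL-5 melanoma cells with luciferase driven by the MITF target TRPM1 promoter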
T3 sequence (O75030 whole entry): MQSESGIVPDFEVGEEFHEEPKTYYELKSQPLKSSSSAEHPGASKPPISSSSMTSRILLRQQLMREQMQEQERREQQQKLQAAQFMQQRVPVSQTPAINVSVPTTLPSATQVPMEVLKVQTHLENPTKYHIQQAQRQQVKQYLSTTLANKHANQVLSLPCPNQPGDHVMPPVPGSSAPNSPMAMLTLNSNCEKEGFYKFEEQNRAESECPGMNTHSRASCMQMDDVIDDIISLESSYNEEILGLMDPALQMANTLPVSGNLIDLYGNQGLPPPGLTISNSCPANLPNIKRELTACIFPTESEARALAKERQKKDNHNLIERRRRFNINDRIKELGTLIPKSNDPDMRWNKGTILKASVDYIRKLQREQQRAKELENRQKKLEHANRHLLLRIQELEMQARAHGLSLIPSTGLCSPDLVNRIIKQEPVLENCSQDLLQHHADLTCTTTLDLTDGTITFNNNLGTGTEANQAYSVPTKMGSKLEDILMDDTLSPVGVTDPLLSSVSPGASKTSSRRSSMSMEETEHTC

[6] = molecular target: T4, Polyadenylate-binding protein 1 (Homo sapiens, UniProt P11940); assay: MLLE binding blockers, Cy5 peptide tracer – biochemical, fluorescence polarization, Cy5-PAM2 peptide, secondary, miRNA deadenylation inhibitor project, dose response (AID 602260); format: functional; conditions: read-out: IC50_Mean
[7] = molecular target: T4, Polyadenylate-binding protein 1; assay: MLLE domain peptide-binding blockers, IC50 – biochemical, fluorescence polarization, FITC-PAM2 peptide, dose response (AID 602259); format: functional; conditions: read-out: IC50_Mean
[8] = blockers of HIV-1 envelope-mediated cell-cell fusion – cherry-pick, dose response (AID 652057); format: functional, cell-based
[9] = blockers of HIV-1 ZM109 envelope-driven cell-cell fusion – HeLa effector, CEM target cells, luciferase, cherry-pick, dose response (AID 652058); format: functional, cell-based;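 also: luciferase signal from HIV-1 Env mediated cell-cell fusion of effector and target cells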
[10] = off-target signal loss in HeLa-CEM21 co-culture – HeLa F-luc CTL cells, cherry-picked, counter-screen for HIV-1 Env fusion inhibitor project, dose response (AID 652040); format: functional, cell-based;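 also: potency for signal decrease marking cytotoxic or nonspecific inhibition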
[11] = HIV-1 AD8 envelope cell-cell fusion blockers – cherry-pick, dose response (AID 652062); format: functional, cell-based;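 also: luciferase signal from cell-cell fusion driven by HIV-1 clade B AD8 Env; potency is for inhibitors of fusion seen as a drop in luminescence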
Protein skinhead-1 = molecular target: T5, Protein skinhead-1 (Caenorhabditis elegans, UniProt P34707); format: functional
T5 sequence (P34707 whole entry): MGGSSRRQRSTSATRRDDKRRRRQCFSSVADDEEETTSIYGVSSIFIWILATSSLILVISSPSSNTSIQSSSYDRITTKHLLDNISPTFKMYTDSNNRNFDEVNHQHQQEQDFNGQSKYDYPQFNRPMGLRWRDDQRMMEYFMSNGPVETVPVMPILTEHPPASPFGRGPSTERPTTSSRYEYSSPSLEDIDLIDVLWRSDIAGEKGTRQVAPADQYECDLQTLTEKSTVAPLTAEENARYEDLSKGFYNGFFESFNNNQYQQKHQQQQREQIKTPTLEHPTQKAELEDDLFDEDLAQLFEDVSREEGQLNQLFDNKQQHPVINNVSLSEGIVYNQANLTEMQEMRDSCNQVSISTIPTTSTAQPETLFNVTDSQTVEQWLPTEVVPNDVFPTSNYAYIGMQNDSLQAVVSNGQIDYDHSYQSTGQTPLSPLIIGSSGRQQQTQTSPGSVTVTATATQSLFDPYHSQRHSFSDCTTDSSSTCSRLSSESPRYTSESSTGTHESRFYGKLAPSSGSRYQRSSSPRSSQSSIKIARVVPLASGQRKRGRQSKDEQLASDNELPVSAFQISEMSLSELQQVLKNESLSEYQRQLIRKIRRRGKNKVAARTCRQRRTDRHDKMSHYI

[12] = NIH-3T3 fibroblast cytotoxicity, dose response, cytotoxicity control, cell-based, fluorescence, Alamar Blue, secondary assay (AID 2327); format: functional;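 also: NIH-3T3 mouse fibroblasts cultured with fluconazole at 8 µg/mL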
[13] = fluconazole-exposed Candida albicans growth modulators – fluorescence, retest, confirmation (AID 2467); format: functional, cell-based
[14] = Luminescence Cell-Based Dose Retest to Confirm Inhibitors of Cancer Stem Cells. [Related pubchem assays (depositor defined):AID2717, AID2721]; format: functional; conditions: Homo sapiens
Cytochrome P450 2D6 = Cytochrome P450 2D6 (Homo sapiens, UniProt P10635);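 also: CYP2D6 member of a cytochrome P450 panel assay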
[15] = molecular target: Induced myeloid leukemia cell differentiation protein Mcl-1 (Homo sapiens, UniProt Q07820); format: functional
INS1 = assay: INS-1E survival protection against cytokine death – cell-based, luminescence, retest, dose response (AID 449756); format: functional; conditions: Rattus norvegicus;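 also: cell death triggered by IL-1 beta plus TNF-alpha plus IFN-gamma mixture; protective hits raise ATP signal compared with cytokine alone wells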
[16] = molecular target: Eukaryotic translation initiation factor 4E (Mus musculus, UniProt P63073); assay: blockers of eIF4G binding by eIF4E – biochemical, TR-FRET, dose response (AID 855); format: functional;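 also: potency for disrupting eIF4E binding to eIF4GI seen as loss of FRET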
Nonstructural protein 1 = Nonstructural protein 1 (Influenza A virus, UniProt Q194T2); format: functional, Influenza A virus (A/California/07/2009(H1N1))
[17] = molecular target: T6, Rac GTPase-activating protein 1 (Homo sapiens, UniProt Q9H0H5); assay: blockers of MgcRacGAP-driven Rac1 GTP hydrolysis – biochemical, ADP Hunter fluorescence, primary and confirmatory, confirmation (AID 624330); format: functional
T6 sequence (Q9H0H5 whole entry): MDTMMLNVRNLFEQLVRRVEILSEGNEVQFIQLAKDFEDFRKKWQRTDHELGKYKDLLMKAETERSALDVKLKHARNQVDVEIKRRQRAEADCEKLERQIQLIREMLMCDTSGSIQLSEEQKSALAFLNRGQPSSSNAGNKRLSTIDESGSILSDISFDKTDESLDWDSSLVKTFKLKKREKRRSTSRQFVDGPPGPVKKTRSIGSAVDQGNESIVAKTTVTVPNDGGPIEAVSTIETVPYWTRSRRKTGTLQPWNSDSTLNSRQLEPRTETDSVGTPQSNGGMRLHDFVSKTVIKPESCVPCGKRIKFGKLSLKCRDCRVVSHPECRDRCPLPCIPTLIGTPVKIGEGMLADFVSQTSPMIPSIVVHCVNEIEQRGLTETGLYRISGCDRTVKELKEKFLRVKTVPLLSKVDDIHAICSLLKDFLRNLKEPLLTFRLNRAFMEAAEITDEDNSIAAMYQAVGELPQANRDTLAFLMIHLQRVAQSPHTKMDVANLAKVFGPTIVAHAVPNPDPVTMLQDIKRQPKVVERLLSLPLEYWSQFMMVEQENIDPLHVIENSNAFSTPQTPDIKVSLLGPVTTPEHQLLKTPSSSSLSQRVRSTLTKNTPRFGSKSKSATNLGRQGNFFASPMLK

T4 sequence (P11940 whole entry, the tested form may be a part): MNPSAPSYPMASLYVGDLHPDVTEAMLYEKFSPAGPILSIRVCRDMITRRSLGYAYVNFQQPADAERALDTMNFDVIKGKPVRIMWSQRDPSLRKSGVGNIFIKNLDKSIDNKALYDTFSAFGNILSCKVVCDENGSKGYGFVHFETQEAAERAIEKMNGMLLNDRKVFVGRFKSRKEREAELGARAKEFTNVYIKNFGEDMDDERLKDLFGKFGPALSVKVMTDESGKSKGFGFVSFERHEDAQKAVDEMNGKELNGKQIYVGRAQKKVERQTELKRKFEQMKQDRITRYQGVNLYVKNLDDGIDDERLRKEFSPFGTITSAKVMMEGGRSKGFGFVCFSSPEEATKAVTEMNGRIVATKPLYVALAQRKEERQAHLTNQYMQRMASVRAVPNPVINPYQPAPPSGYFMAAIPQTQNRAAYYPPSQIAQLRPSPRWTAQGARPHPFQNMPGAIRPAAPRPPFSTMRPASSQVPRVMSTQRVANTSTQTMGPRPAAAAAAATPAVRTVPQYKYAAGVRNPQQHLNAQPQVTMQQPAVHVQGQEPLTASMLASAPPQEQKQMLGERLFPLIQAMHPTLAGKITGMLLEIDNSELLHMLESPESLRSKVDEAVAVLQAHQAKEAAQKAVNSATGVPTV
Cytochrome P450 2C9, sequence (P11712 whole entry, the tested form may be a part): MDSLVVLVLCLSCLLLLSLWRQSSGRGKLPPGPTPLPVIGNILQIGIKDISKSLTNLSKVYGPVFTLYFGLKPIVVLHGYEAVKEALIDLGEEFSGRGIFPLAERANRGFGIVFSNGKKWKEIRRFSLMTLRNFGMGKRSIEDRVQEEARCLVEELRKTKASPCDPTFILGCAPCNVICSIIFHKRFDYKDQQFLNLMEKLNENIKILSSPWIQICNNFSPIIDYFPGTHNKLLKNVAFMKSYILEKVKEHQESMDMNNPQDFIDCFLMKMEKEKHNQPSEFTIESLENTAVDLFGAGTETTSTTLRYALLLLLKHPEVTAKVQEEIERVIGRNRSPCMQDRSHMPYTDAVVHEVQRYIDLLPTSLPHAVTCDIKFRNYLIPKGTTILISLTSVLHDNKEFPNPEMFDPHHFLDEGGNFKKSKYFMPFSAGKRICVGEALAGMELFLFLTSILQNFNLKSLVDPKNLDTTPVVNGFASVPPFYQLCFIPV
Eukaryotic translation initiation factor 4E, sequence (P63073 whole entry): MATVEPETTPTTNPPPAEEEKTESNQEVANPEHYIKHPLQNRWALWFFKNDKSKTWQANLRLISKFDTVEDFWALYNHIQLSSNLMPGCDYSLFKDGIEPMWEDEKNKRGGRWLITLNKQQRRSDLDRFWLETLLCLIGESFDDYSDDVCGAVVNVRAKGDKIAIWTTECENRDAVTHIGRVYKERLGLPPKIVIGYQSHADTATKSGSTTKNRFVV
Nonstructural protein 1, sequence (Q194T2 whole entry): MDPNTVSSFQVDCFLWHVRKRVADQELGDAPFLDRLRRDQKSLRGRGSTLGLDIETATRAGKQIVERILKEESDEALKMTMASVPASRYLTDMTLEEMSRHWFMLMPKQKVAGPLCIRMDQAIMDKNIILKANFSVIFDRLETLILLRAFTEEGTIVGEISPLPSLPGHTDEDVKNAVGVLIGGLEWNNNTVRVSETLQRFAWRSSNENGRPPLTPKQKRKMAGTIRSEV
Cytochrome P450 2D6, sequence (P10635 whole entry): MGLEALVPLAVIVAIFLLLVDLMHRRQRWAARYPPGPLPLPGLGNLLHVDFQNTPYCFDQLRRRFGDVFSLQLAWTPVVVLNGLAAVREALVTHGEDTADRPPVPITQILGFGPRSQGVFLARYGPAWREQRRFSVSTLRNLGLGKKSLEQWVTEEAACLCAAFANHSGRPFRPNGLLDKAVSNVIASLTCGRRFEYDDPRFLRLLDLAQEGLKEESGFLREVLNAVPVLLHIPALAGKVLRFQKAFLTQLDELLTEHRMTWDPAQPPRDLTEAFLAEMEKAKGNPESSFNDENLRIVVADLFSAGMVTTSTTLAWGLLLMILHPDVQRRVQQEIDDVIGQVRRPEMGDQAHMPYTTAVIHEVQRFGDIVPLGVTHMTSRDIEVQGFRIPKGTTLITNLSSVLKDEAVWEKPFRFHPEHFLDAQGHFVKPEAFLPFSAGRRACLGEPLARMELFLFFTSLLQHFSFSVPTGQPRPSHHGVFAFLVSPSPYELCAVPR
Induced myeloid leukemia cell differentiation protein Mcl-1, sequence (Q07820 whole entry): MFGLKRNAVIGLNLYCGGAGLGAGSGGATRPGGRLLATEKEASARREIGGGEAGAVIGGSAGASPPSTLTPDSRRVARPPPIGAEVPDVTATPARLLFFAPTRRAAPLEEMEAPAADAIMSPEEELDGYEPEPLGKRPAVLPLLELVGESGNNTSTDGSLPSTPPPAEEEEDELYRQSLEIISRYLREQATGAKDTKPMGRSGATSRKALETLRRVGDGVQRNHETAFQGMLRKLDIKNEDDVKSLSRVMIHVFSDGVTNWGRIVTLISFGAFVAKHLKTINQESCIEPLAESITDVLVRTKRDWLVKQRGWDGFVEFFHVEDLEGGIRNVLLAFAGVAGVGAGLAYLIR

O=C(OCC#CCSc1nnc(-c2cccc3ccccc23)o1)c1ccco1
AC50 (Cytochrome P450 2C9): inconclusive

COc1ccc(CCNC(=O)c2nn(C)c3c2CS(=O)(=O)c2ccccc2-3)cc1OC
EC50 [1]: > 300 µM (not active)
EC50 [2]: > 300 µM (not active)

O=C(/C=C/c1ccc([N+](=O)[O-])s1)N1CCCC1
EC50 [1]: > 300 µM (not active)
EC50 [2]: > 300 µM (not active)
EC50 [3]: 1.03 µM (active)
EC50 [4]: > 60 µM (not active)
AC50 [5]: 9.86 µM (active)

CN=C(S)SCCOc1ccccc1
IC50 [6]: > 66 µM (inactive)
IC50 [7]: > 66 µM (inactive)

COc1ccc2c(c1)OC[C@H]1[C@H]2N2C(=O)CN(Cc3ccc(C)cc3)C(=O)[C@@]2(C)[C@H]1c1ccccc1
AC50 [8]: 7.77 µM (active)
AC50 [9]: 15.5 µM (active)
AC50 [10]: 26.9 µM (active)
AC50 [11]: 5.83 µM (active)

Cc1cc2cc(CNC(=O)Nc3ccccc3)ccc2n1C
IC50 [6]: > 66 µM (inactive)
IC50 [7]: > 66 µM (inactive)
IC50 (Protein skinhead-1): > 100 µM (inactive)

O=C(N/N=C/c1sc(N2CCOCC2)nc1-c1ccccc1)c1cccc(S(=O)(=O)N2CCOCC2)c1
EC50 [12]: > 150 µM (inactive)
EC50 [13]: > 38 µM (not active)
AC50 [8]: 4.02 µM (active)
AC50 [9]: 4.42 µM (active)
AC50 [10]: 6.84 µM (active)
AC50 [11]: 3.47 µM (active)

Cc1cc([N+](=O)[O-])ccc1-c1ccc(/C=N/NC(=O)c2ccc(Br)o2)o1
EC50 [1]: 19.7 µM (active)
EC50 [2]: 5.51 µM (active)
AC50 [14]: 2.35 µM (active)

Cc1noc(C)c1-c1nccc(-n2ccnc2)n1
AC50 (Cytochrome P450 2D6): 20 µM (inconclusive)
AC50 (Cytochrome P450 2C9): inconclusive

COc1cccc(C2C(C#N)=C(N)OC3=C2C(=O)CCC3)c1OC(=O)c1ccco1 (stereo not given)
EC50 [1]: > 300 µM (not active)
EC50 [2]: > 300 µM (not active)

O=C(N/N=C/c1ccc(F)cc1)c1c(O)nc2ccccc2c1O
AC50 [5]: 9.64 µM (active)

COc1ccc(C(=S)N2CCC(C(N)=O)CC2)cc1Br
IC50 [6]: > 66 µM (inactive)
IC50 [7]: > 66 µM (inactive)

CC1CCCCN1C(=O)Cn1nnc(-c2cccnc2)n1 (stereo not given)
IC50 [6]: > 66 µM (inactive)
IC50 [7]: 17 µM (active)

S=c1nc(-c2ccccc2)oc2c1CCCC2
AC50 (Cytochrome P450 2C9): inconclusive

O=C(O)c1ccccc1N/N=C/c1c(Sc2nnnn2-c2ccccc2)nc2ccccn2c1=O
EC50 [1]: > 300 µM (not active)
EC50 [2]: 116 µM (active)
IC50 [15]: 2.58 µM (active)

Cc1ccc(C(C)C)c(OCc2n[n+](CC(=O)c3ccc(Cl)cc3)c3n2CCCCC3)c1
EC50 [3]: 0.304 µM (active)
EC50 [4]: > 60 µM (not active)
AC50 [14]: 3.31 µM (active)
AC50 [5]: 9.83 µM (active)
AC50 (INS1): 3.41 µM (active)

CN1C(=O)C(=Cc2ccc(SC3CCCCC3)o2)C(=O)N(C)C1=O
EC50 [1]: > 300 µM (not active)
EC50 [2]: > 300 µM (not active)

CC(=O)N1CCN(c2ccc(NC(=S)NC(=O)COc3ccc(C(C)(C)C)cc3)cc2)CC1
IC50 [6]: > 66 µM (inactive)
IC50 [7]: > 66 µM (inactive)

CCOC(=S)SCc1cn2cccc(C)c2n1
IC50 [6]: > 66 µM (inactive)
IC50 [7]: > 66 µM (inactive)

Cc1cccc(NC(=O)CCCN2C(=O)c3cccc4cccc(c34)C2=O)c1
AC50 (Cytochrome P450 2D6): 25.1 µM (inconclusive)
AC50 (Cytochrome P450 2C9): inconclusive

CCCCCCN1C=CC(=C2C(=O)c3ccccc3C2=O)C=C1
AC50 [5]: 3.86 µM (active)

CCN(CC)c1ccc(/N=C/c2c(C)[nH]c3ccccc23)cc1
IC50 [16]: > 64 µM (inactive)
IC50 (Nonstructural protein 1): 29.3 µM (active)
IC50 [17]: 43.7 µM (active)

Nc1ccc(N(c2ccccc2)c2ccc(N)cc2)cc1
EC50 [3]: 1.81 µM (active)
EC50 [4]: > 60 µM (not active)
IC50 [16]: > 64 µM (inactive)
IC50 (Nonstructural protein 1): 9.26 µM (active)
IC50 [17]: 8.57 µM (active)

CN(C)C(=O)CCC(=O)N1CCCC(C(=O)c2ccc3c4c(cccc24)CC3)C1 (stereo not given)
AC50 [8]: 0.498 µM (active)
AC50 [9]: 0.53 µM (active)
AC50 [10]: 0.753 µM (active)
AC50 [11]: 2.71 µM (active)
